In patent US10233173B2, “Substituted 1,2,3-triazoles as NR2B-selective NMDA modulators” (JANSSEN PHARMACEUTICA NV, priority 2016, dated 2019):

Each compound was assayed against human GluN1/GluN2B NMDA receptors (Homo sapiens, UniProt Q05586+Q13224) (assay: Cell-based calcium flux (FLIPR) assay on cloned human NR1/NR2B ion channels expressed in mammalian cells). Conditions: standard assay; glutamate at ~EC80; FLIPR calcium flux.
In short: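 Calcium influx followed by FLIPR fluorescence after 5 min compound exposure and a further 5 min co-agonist challenge: 10 μM glycine with glutamate at ~EC80 (standard) or EC40 (HTS).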

Chain of human GluN1/GluN2B NMDA receptors (Q13224 27-1484, other chains not shown): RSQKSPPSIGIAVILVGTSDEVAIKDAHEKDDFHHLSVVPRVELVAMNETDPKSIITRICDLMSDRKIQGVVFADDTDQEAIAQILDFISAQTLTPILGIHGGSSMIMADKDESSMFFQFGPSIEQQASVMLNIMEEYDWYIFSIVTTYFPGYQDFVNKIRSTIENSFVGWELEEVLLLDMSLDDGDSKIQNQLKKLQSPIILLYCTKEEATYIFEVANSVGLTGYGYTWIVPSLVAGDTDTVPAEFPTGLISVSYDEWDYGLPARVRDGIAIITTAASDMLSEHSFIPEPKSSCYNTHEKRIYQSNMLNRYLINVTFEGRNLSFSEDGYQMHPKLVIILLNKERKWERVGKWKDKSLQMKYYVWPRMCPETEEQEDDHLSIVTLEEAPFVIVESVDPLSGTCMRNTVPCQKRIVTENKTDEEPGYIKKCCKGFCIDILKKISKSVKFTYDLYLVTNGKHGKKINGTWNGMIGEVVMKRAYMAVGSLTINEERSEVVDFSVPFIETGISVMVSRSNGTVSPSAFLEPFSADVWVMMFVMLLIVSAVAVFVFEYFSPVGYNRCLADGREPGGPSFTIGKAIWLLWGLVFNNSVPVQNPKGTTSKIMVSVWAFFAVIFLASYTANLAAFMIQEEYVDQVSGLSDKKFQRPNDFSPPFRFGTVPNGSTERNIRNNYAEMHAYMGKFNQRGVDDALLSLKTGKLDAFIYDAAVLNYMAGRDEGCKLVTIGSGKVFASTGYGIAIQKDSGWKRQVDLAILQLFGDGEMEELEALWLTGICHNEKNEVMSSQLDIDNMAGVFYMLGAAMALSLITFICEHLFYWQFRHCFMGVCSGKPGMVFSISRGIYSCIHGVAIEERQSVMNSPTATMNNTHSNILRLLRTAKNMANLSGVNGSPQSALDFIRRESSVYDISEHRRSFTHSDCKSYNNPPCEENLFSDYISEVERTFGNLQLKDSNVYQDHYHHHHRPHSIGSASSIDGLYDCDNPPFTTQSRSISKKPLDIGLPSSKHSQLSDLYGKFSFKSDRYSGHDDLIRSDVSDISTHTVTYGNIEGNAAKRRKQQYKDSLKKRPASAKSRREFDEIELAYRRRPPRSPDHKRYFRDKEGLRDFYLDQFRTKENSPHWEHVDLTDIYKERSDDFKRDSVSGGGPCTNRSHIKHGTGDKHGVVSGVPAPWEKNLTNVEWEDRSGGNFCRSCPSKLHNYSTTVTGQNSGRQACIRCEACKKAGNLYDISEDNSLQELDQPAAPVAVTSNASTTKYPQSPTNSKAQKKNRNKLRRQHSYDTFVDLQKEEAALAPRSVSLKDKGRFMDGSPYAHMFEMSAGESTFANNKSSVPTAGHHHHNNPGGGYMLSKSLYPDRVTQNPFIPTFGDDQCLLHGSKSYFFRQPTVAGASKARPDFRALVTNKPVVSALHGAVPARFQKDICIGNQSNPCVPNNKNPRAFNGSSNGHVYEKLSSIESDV

SMILES	IC50 [µM]
CC(F)(F)c1cc(-n2cc(COc3ncc(S(C)(=O)=O)cn3)nn2)ccc1F [Example 584, 2-[[1-[3-(1,1-Difluoroethyl)-4-fluoro-phenyl]triazol-4-yl]methoxy]-5-methylsulfonyl-pyrimidine]	0.199
CNC(=O)c1cnc(OCc2cn(-c3ccc(F)c(C(F)F)c3)nn2)nc1 [Example 409, 2-[[1-[3-(Difluoromethyl)-4-fluoro-phenyl]triazol-4-yl]methoxy]-N-methyl-pyrimidine-5-carboxamide]	0.149
Fc1ccc(-n2cc(COc3ncc(N4CCC4)cn3)nn2)cc1C(F)F [Example 417, 5-(Azetidin-1-yl)-2-((1-(3-(difluoromethyl)-4-fluorophenyl)-1H-1,2,3-triazol-4-yl)methoxy)pyrimidine]	0.006
Cc1nc(OCc2cn(-c3ccc(Cl)c(C(C)(F)F)c3)nn2)ncc1Cl [Example 543, 5-Chloro-2-[[1-[4-chloro-3-(1,1-difluoroethyl)phenyl]triazol-4-yl]methoxy]-4-methyl-pyrimidine]	0.015
Cc1cc(-n2cc(COc3ncc(F)cn3)nn2)ccc1F [Example 474, 5-Fluoro-2-[[1-(4-fluoro-3-methyl-phenyl)triazol-4-yl]methoxy]pyrimidine]	0.022
Fc1ccc(-n2cc(COc3ncccn3)nn2)cc1Cl [Example 619, 2-[[1-(3-Chloro-4-fluoro-phenyl)triazol-4-yl]methoxy]pyrimidine]	0.217
Cc1c(F)ccc(-n2cc(COc3ncc(C(C)C)cn3)nn2)c1F [Example 639, 2-[[1-(2,4-Difluoro-3-methyl-phenyl)triazol-4-yl]methoxy]-5-isopropyl-pyrimidine]	0.052
CC(F)(F)c1cc(-n2cc(COc3nccc(C(F)(F)F)n3)nn2)ccc1Cl [Example 538, 2-[[1-[4-Chloro-3-(1,1-difluoroethyl)phenyl]triazol-4-yl]methoxy]-4-(trifluoromethyl)pyrimidine]	0.318
CC(F)(F)c1cc(-n2cc(COc3ncc(C4CC4)cn3)nn2)ccc1Cl [Example 552, 2-[[1-[4-Chloro-3-(1,1-difluoroethyl)phenyl]triazol-4-yl]methoxy]-5-cyclopropyl-pyrimidine]	0.086
Cc1c(F)ccc(-n2cc(COc3nccc(C(C)C)n3)nn2)c1F [Example 640, 2-[[1-(2,4-Difluoro-3-methyl-phenyl)triazol-4-yl]methoxy]-4-isopropyl-pyrimidine]	1.98
Cc1nc(OCc2cn(-c3ccc(F)c(C(C)(F)F)c3)nn2)ncc1Cl [Example 574, 5-Chloro-2-[[1-[3-(1,1-difluoroethyl)-4-fluoro-phenyl]triazol-4-yl]methoxy]-4-methyl-pyrimidine]	0.01
Cc1cnc(OCc2cn(-c3ccc(F)c(Cl)c3)nn2)nc1 [Example 620, 2-[[1-(3-Chloro-4-fluoro-phenyl)triazol-4-yl]methoxy]-5-methyl-pyrimidine]	0.008
CC(F)(F)c1cc(-n2cc(COc3ccc(C(F)(F)F)cn3)nn2)ccc1F [Example 559, 2-[[1-[3-(1,1-Difluoroethyl)-4-fluoro-phenyl]triazol-4-yl]methoxy]-5-(trifluoromethyl)pyridine]	0.812
Nc1ccnc(OCc2cn(-c3ccc(F)c(C(F)F)c3)nn2)n1 [Example 412, 2-[[1-[3-(Difluoromethyl)-4-fluoro-phenyl]triazol-4-yl]methoxy]pyrimidin-4-amine]	0.124
Cc1cnc(OCc2cn(-c3cc(C)ccn3)nn2)nc1 [Example 662, 5-Methyl-2-[[1-(4-methyl-2-pyridyl)triazol-4-yl]methoxy]pyrimidine]	> 2.99
Cc1cnc(OCc2cn(-c3ccc(F)c(OC(F)F)c3)nn2)nc1N(C)C [Example 516, 2-[[1-[3-(Difluoromethoxy)-4-fluoro-phenyl]triazol-4-yl]methoxy]-N,N,5-trimethyl-pyrimidin-4-amine]	0.017
Cc1cnc(OCc2cn(-c3cccc(Cl)c3F)nn2)nc1 [Example 610, 2-[[1-(3-Chloro-2-fluoro-phenyl)triazol-4-yl]methoxy]-5-methyl-pyrimidine]	1.03

Same assay, conditions: standard assay; human GluN1/GluN2B, calcium flux (FLIPR), glutamate ~EC80

SMILES	IC50 [µM]
COc1cnc(OCc2cn(-c3cc(C)cc(C)c3)nn2)nc1 [Example 362, 2-[[1-(3,5-Dimethylphenyl)triazol-4-yl]methoxy]-5-methoxy-pyrimidine]	0.032
COc1cnc(OCc2cn(-c3ccc(Cl)c(C(F)F)c3)nn2)nc1 [Example 46, 2-[[1-[4-Chloro-3-(difluoromethyl)phenyl]triazol-4-yl]methoxy]-5-methoxy-pyrimidine]	0.001
Cc1cnc(OCc2cn(-c3ccc(F)c(OC(F)F)c3)nn2)nc1 [Example 63, 2-[[1-[3-(Difluoromethoxy)-4-fluoro-phenyl]triazol-4-yl]methoxy]-5-methyl-pyrimidine]	0.003
Cc1cnc(OC(C)c2cn(-c3ccc(Cl)c(OC(F)F)c3)nn2)nc1 (racemic) [Example 56, (R/S)-2-[1-[1-[4-Chloro-3-(difluoromethoxy)phenyl]triazol-4-yl]ethoxy]-5-methyl-pyrimidine]	0.028
Fc1ccc(-n2cc(COc3ncc(N4CCC4)cn3)nn2)cc1OC(F)F [Example 165, 5-(Azetidin-1-yl)-2-[[1-[3-(difluoromethoxy)-4-fluoro-phenyl]triazol-4-yl]methoxy]pyrimidine]	0.016
FC(F)c1cccc(-n2cc(COc3ncccn3)nn2)c1 [Example 93, 2-[[1-[3-(Difluoromethyl)phenyl]triazol-4-yl]methoxy]pyrimidine]	0.493
CC(F)(F)c1cc(-n2cc(COc3ncc(-c4cn[nH]c4)cn3)nn2)ccc1F [Example 185, 2-[[1-[3-(1,1-Difluoroethyl)-4-fluoro-phenyl]triazol-4-yl]methoxy]-5-(1H-pyrazol-4-yl)pyrimidine]	0.166
Fc1ccc(-n2cc(CNc3ncc(C(F)(F)F)cn3)nn2)cc1C(F)F [Example 213, N-[[1-[3-(Difluoromethyl)-4-fluoro-phenyl]triazol-4-yl]methyl]-5-(trifluoromethyl)pyrimidin-2-amine]	0.108
CC(F)(F)c1cccc(-n2cc(COc3nccc(CO)n3)nn2)c1 [Example 299, [2-[[1-[3-(1,1-Difluoroethyl)phenyl]triazol-4-yl]methoxy]pyrimidin-4-yl]methanol]	0.049
FC(F)c1cccc(-n2cc(COc3nccc(N4CCCC4)n3)nn2)c1 [Example 284, 2-[[1-[3-(Difluoromethyl)phenyl]triazol-4-yl]methoxy]-4-pyrrolidin-1-yl-pyrimidine]	0.094
Fc1cnc(OCc2cn(-c3cccc(C(F)F)c3)nn2)nc1 [Example 269, 2-[[1-[3-(Difluoromethyl)phenyl]triazol-4-yl]methoxy]-5-fluoro-pyrimidine]	0.325
Fc1cnc(OCc2cn(-c3ccc(OC(F)F)cc3)nn2)nc1 [Example 330, 2-[[1-[4-(Difluoromethoxy)phenyl]triazol-4-yl]methoxy]-5-fluoro-pyrimidine]	0.752
Cc1ccnc(OCc2cn(-c3ccc(F)c(OC(F)F)c3)nn2)c1 [Example 116, 2-[[1-[3-(Difluoromethoxy)-4-fluoro-phenyl]triazol-4-yl]methoxy]-4-methyl-pyridine]	0.102
Fc1ccc(-n2cc(CNc3ncccn3)nn2)cc1C(F)(F)F [Example 3, N-[[1-[4-Fluoro-3-(trifluoromethyl)phenyl]triazol-4-yl]methyl]pyrimidin-2-amine]	2.8
FC(F)Oc1cc(-n2cc(COc3ncccc3Cl)nn2)ccc1Cl [Example 105, 3-Chloro-2-[[1-[4-chloro-3-(difluoromethoxy)phenyl]triazol-4-yl]methoxy]pyridine]	0.059
Fc1ccc(-n2cc(COc3ncc(Cl)cn3)nn2)cc1C(F)(F)F [Example 74, 5-Chloro-2-[[1-[4-fluoro-3-(trifluoromethyl)phenyl]triazol-4-yl]methoxy]pyrimidine]	0.016
FC(F)c1cccc(-n2cc(COc3nccc(C4CC4)n3)nn2)c1 [Example 283, 4-Cyclopropyl-2-[[1-[3-(difluoromethyl)phenyl]triazol-4-yl]methoxy]pyrimidine]	0.169
C[C@H](Oc1ncccn1)c1cn(-c2ccc(Cl)c(OC(F)F)c2)nn1 [Example 378, 2-[(1S)-1-[1-[4-Chloro-3-(difluoromethoxy)phenyl]triazol-4-yl]ethoxy]pyrimidine]	2.3
CC(F)(F)c1cc(-n2cc(COc3ncc(F)cn3)nn2)ccc1F [Example 80, 2-[[1-[3-(1,1-Difluoroethyl)-4-fluoro-phenyl]triazol-4-yl]methoxy]-5-fluoro-pyrimidine]	0.032
CC(C)c1cccc(-n2cc(COc3ncc(F)cn3)nn2)c1 [Example 263, 5-Fluoro-2-[[1-(3-isopropylphenyl)triazol-4-yl]methoxy]pyrimidine]	0.227
CC(C)c1cnc(OCc2cn(-c3ccc(F)c(C(F)(F)F)c3)nn2)nc1 [Example 75, 2-[[1-[4-Fluoro-3-(trifluoromethyl)phenyl]triazol-4-yl]methoxy]-5-isopropyl-pyrimidine]	0.026
CNc1ccnc(OCc2cn(-c3cccc(C(C)(F)F)c3)nn2)n1 [Example 317, 2-[[1-[3-(1,1-Difluoroethyl)phenyl]triazol-4-yl]methoxy]-N-methyl-pyrimidin-4-amine]	0.026
Fc1ccc(-n2cc(COc3ncc(C(F)(F)F)cn3)nn2)cc1OC(F)F [Example 62, 2-[[1-[3-(Difluoromethoxy)-4-fluoro-phenyl]triazol-4-yl]methoxy]-5-(trifluoromethyl)pyrimidine]	0.007
OCc1cnc(OCc2cn(-c3cccc(C(F)F)c3)nn2)nc1 [Example 160, [2-[[1-[3-(Difluoromethyl)phenyl]triazol-4-yl]methoxy]pyrimidin-5-yl]methanol]	0.173
CC(C)c1cnc(OCc2cn(-c3ccc(F)c(Br)c3)nn2)nc1 [Example 43, 2-[[1-(3-Bromo-4-fluoro-phenyl)triazol-4-yl]methoxy]-5-isopropylpyrimidine]	0.005
